This passage reports Ki results from BindingDB's records for doi:10.1124/jpet.301.3.1166 (University of North Carolina, 2002).

pKi: −log10 of the molar value. “And” between values parts separate entries of the source, which are not always exact repeats. Equal values may be shown once.

One assay addresses D(2) dopamine receptor (Rattus norvegicus, UniProt P61169).
For a further assay, the target named is D(1A) dopamine receptor (Rattus norvegicus, UniProt P18901).
Chain of D(1A) dopamine receptor (P18901 whole entry): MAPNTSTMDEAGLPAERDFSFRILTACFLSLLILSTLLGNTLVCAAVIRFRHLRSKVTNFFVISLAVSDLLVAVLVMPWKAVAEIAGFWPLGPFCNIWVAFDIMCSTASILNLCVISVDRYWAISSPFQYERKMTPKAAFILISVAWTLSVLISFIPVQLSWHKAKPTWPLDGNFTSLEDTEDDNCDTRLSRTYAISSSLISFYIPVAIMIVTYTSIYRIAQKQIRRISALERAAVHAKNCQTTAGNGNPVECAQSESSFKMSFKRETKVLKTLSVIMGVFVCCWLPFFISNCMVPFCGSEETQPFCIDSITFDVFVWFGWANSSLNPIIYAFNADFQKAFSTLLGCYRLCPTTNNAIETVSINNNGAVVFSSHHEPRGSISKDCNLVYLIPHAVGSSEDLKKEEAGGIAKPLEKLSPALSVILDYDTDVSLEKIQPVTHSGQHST

Chain of D(2) dopamine receptor (P61169 whole entry): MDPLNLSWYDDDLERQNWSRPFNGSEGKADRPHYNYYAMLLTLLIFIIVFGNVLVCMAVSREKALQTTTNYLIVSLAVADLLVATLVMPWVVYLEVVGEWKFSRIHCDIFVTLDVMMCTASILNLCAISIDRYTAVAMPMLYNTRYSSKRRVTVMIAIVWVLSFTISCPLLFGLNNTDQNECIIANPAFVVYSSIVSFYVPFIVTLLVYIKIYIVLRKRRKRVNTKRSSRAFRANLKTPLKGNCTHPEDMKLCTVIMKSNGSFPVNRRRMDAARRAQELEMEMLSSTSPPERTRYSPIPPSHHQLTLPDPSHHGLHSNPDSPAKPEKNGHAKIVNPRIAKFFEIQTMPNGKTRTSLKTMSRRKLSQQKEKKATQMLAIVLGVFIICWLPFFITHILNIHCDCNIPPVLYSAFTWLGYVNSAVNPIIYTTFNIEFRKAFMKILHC

For the molecule `CCCN1Cc2ccccc2[C@@H]2c3cc(O)c(O)cc3CC[C@H]21` [N-n-propyldihydrexidine, N-Pr-DHX], the pKi on D(2) dopamine receptor is 8.19 and 7.70; on D(1A) dopamine receptor it was 6.49.
